Like-named read-outs stand apart in the source and are kept apart here. One block for each compound: values may come before it.
Columns and labels:
PNMT = details: read-out: Ki^PEA; ref [85]; cited from earlier work
bovine PNMT [1] = biological target: T1, bovine PNMT (Bos taurus, UniProt P10938); details: read-out: PNMT Kis^PEA; bovine enzyme; ref [16]; cited from earlier work
T1 sequence (P10938 1-283): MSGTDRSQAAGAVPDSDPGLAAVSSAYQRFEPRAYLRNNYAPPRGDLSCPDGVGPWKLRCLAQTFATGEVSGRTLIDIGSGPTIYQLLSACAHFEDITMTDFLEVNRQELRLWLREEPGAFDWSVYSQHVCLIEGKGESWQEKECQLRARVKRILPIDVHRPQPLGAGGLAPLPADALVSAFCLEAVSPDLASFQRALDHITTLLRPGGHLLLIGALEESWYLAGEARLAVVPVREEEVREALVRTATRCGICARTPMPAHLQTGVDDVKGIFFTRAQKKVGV

bovine PNMT [2] = biological target: T1, bovine PNMT; assay: PNMT inhibition, bovine enzyme; type: biochemical
human PNMT (hPNMT) = biological target: T2, human PNMT (hPNMT) (Homo sapiens, UniProt P11086); assay: radiochemical assay for hPNMT inhibitory potency
T2 sequence (P11086 1-282): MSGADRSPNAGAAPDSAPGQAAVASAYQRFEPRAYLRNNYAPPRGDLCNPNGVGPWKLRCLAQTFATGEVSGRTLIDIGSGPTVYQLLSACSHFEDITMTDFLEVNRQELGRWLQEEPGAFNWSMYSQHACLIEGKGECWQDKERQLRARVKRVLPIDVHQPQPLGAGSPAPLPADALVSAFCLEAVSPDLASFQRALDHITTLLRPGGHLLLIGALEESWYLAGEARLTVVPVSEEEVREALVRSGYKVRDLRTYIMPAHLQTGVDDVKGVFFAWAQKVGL

Compound: c1ccc2c(c1)CCNC2 [Compound 10, 1,2,3,4-tetrahydroisoquinoline]
Ki (PNMT): 10 µM

Compound: NC(=O)C1Cc2ccccc2CN1 (centres unmarked) [Compound 13]
Ki (bovine PNMT [1]): 31 µM

Ki (bovine PNMT [2]): 1.4 µM | greater potency as an inhibitor of hPNMT than 13 (human PNMT (hPNMT); 14 (aminomethyl) versus 13 (aminocarbonyl)): over 20 fold
Compound: NCC1Cc2ccccc2CN1 (centres unmarked) [Compound 14]

Compound: tris(hydroxymethyl)amino methane
inhibition in PNMT assays (human PNMT (hPNMT); buffer component, prompted a switch to phosphate buffer): inhibition being observed
